# Source: patent US20090247579A1, “2-[3H-THIAZOL-2-YLIDINEMETHYL]PYRIDINES AND RELATED COMPOUNDS AND THEIR USE” (CANCER RESEARCH TECHNOLOGY LIMITED, priority 2006, published 2009)
# Values joined by “and” are separate entries in the source; they are usually repeats but may differ in a detail not shown here. Equal entries are not always repeated. Where two headings read alike, the source gives them in different places.
# How the values were obtained:
# CALU = test: Cancer cell line panel, CALU (NSCLC); assay type: cell-based
# Protocol: (§1) Relative drug sensitivities (Resistance Factor) and IC50 values were determined by a modified MTT assay (see, e.g., Mosmann, 1983; Plumb et al., 1989), as described below: • (1) Trypsinise a sub-confluent monolayer culture and collect cells in growth medium containing serum. Centrifuge the suspension (200 g, 5 minutes) to pellet cells, re-suspend in growth medium, and count cells. Dilute cells to a density of 5×10^3 cells/mL allowing 60 mL of cell suspension for 3 microtitre plates. Transfer cell suspension to a 10 cm petri dish, and with a multichannel pipette add 200 μL to each well of the central 10 columns of a flat bottomed 96-well plate (80 wells per plate) starting with column 2 and ending with column 11. Add 200 μL of growth medium to the 8 wells in columns 1 and 12. […] Glycine buffer is added (25 μL per well) to all wells containing DMSO. • (8) Absorbance is recorded at 570 nm with the wells in column 1, which contained medium and MTT but no cells used as a blank. • (9) A graph is plotted of absorbance (y-axis) against drug concentration (x-axis). The mean absorbance reading from the wells in columns 2 and 11 is used as the control absorbance and the IC50 concentration is determined as the drug concentration required to reduce the absorbance to half that of the control. IC10 or IC90 values can be determined in the same manner. […]
# SW48 (MLH1) = test: Modified MTT assay, colon panel SW48; assay type: cell-based
# Protocol: as §1
# A375 = test: Cancer cell line panel, A375 (melanoma); assay type: cell-based
# Protocol: as §1
# RKO (MLH1) = test: Modified MTT assay, colon panel RKO; assay type: cell-based
# Protocol: as §1
# C8161 = test: Cancer cell line panel, C8161 (melanoma); assay type: cell-based
# Protocol: as §1
# A2780/cp70 = test: Modified MTT assay, A2780/cp70 (cisplatin resistant, MMR deficient); assay type: cell-based, human; conditions: 24 hour drug exposure; for IC50: MTT; for A2780/cp70 RF (Resistance Factor): fold difference in resistance from parental A2780
# Protocol: (§2) Relative drug sensitivities (Resistance Factor) and IC50 values were determined by a modified MTT assay (see, e.g., Mosmann, 1983; Plumb et al., 1989), as described below: • (1) Trypsinise a sub-confluent monolayer culture and collect cells in growth medium containing serum. Centrifuge the suspension (200 g, 5 minutes) to pellet cells, re-suspend in growth medium, and count cells. Dilute cells to a density of 5×10^3 cells/mL allowing 60 mL of cell suspension for 3 microtitre plates. Transfer cell suspension to a 10 cm petri dish, and with a multichannel pipette add 200 μL to each well of the central 10 columns of a flat bottomed 96-well plate (80 wells per plate) starting with column 2 and ending with column 11. Add 200 μL of growth medium to the 8 wells in columns 1 and 12. Put the plates in a plastic box and incubate in a humidified atmosphere at 37° C. for 2-3 days so that cells are in the exponential phase of growth for drug addition. • (2) Prepare a serial 5-fold dilution of the cytotoxic drug in growth medium to give 8 concentrations. Pipette 6 mL of growth medium in to each of 7 universal containers (30 mL). Prepare 10 mL of the highest concentration of the drug and transfer 1.5 mL of this solution to the first universal container. Mix and then transfer 1.5 mL to the next universal container. Continue until the seventh universal container is reached. The concentrations should be chosen so that the highest concentration kills most of the cells and the lowest kills none of the cells. Normally, three plates are used for each drug to give triplicate determinations within one experiment. • (3) The medium is removed from all the wells in columns 2 to 11. This can be achieved with a hypodermic needle attached to a suction line. Cells in the 8 wells in columns 2 and 11 are fed with 200 μL of fresh growth medium. The drug solutions are transferred to 10 cm petri dishes and 200 μL added to all 8 wells of a column. For ease of analysis arrange the drug solutions in order so that the highest is in column 3 down to the lowest in column 10. Plates are returned to the plastic box and incubated for 24 hours. • (4) At the end of the drug exposure period, the medium is removed from all wells containing cells and the cells are fed with 200 μL of fresh medium. • (5) The plates are fed daily for two more days. • (6) The plates are fed with 200 μL of fresh medium and 50 μL of the MTT solution (5 mg/mL in PBS) is added to all wells in columns 1 to 11. Plates are wrapped in aluminium foil and incubated for 4 hours in a humidified atmosphere at 37° C. • (7) The medium and MTT are then removed from the wells and the purple MTT-formazan crystals dissolved by addition of 200 μL of DMSO to all wells in columns 1 to 11. Glycine buffer is added (25 μL per well) to all wells containing DMSO. • (8) Absorbance is recorded at 570 nm with the wells in column 1, which contained medium and MTT but no cells used as a blank. • (9) A graph is plotted of absorbance (y-axis) against drug concentration (x-axis). The mean absorbance reading from the wells in columns 2 and 11 is used as the control absorbance and the IC50 concentration is determined as the drug concentration required to reduce the absorbance to half that of the control. IC10 or IC90 values can be determined in the same manner.
# (§3) A2780/cp70 and A2780/mcp1 have lost expression of MLH1, have lost MMR activity, and have microsatellite instability compared to A2780. The CpG island at the MLH1 gene is methylated in A2780/cp70 and A2780/mcp1, but not A2780.
# (§4) IC50 values (μM) for A2780, A2780/cp70, and A2780/mcp1 and Resistance Factors (RF) (the fold difference in resistance from parental A2780) were determined based on the MTT assay described above for several compounds of the present invention (including, e.g., MMR201).
# BE = test: Modified MTT assay, colon panel BE; assay type: cell-based
# Protocol: as §1
# MCF7 = test: Cancer cell line panel, MCF7 (breast); assay type: cell-based
# Protocol: as §1
# OVCAR5 = test: Cancer cell line panel, OVCAR5 (ovary); assay type: cell-based
# Protocol: as §1
# DU145 = test: Cancer cell line panel, DU145 (prostate); assay type: cell-based
# Protocol: as §1
# A2780 = test: Modified MTT assay, A2780 (parental, MMR proficient); assay type: cell-based, human
# Protocol: as §2, §3, §4
# COLO320DM = test: Modified MTT assay, colon panel COLO320DM; assay type: cell-based
# Protocol: as §1
# A549 = test: Cancer cell line panel, A549 (NSCLC); assay type: cell-based
# Protocol: as §1
# HS294 = test: Cancer cell line panel, HS294 (melanoma); assay type: cell-based
# Protocol: as §1
# DLD1 (MSH6) = test: Modified MTT assay, colon panel DLD1; assay type: cell-based
# Protocol: as §1
# H125 = test: Cancer cell line panel, H125 (NSCLC); assay type: cell-based
# Protocol: as §1
smiles,measurement,setting,value
"N.N.[Cl][Pt][Cl] [Cisplatin, reference compound]",IC50,CALU; read-out: Cisplatin,7250 ± 580 nM
same,IC50,"SW48 (MLH1); read-out: Cisplatin IC50, MMR deficient, p53 wt",1820 ± 70 nM
same,IC50,A375; read-out: Cisplatin,613 ± 51 nM
same,IC50,"RKO (MLH1); read-out: Cisplatin IC50, MMR deficient",4010 ± 100 nM
same,IC50,C8161; read-out: Cisplatin,3460 ± 160 nM
same,IC50,A2780/cp70,1740 nM and 1680 nM
same,A2780/cp70 RF (Resistance Factor),A2780/cp70,8.1 and 6.9
same,IC50,"BE; read-out: Cisplatin IC50, MMR status unknown, p53 ?",8670 ± 1420 nM
same,IC50,MCF7; read-out: Cisplatin,1780 ± 170 nM
same,IC50,OVCAR5; read-out: Cisplatin,1780 ± 100 nM
same,IC50,DU145; read-out: Cisplatin,1680 ± 40 nM
same,IC50,A2780; 24 hour drug exposure,215 nM and 244 nM
same,IC50,"COLO320DM; read-out: Cisplatin IC50, MMR proficient, p53 mut",2900 ± 290 nM
same,IC50,A549; read-out: Cisplatin,1130 ± 40 nM
same,IC50,HS294; read-out: Cisplatin,1490 ± 80 nM
same,IC50,"DLD1 (MSH6); read-out: Cisplatin IC50, MMR deficient, p53 mut",1670 ± 30 nM
same,IC50,H125; read-out: Cisplatin,3690 ± 430 nM
CC[n+]1c(/C=C2\Sc3oc4ccccc4c3N2C)ccc2cc(C)ccc21.[I-] [MMR201],IC50,CALU; read-out: MMR201,380 ± 7.5 nM
same,IC50,"SW48 (MLH1); Homo sapiens, MMR deficient, p53 wt, read-out: MMR201 IC50",76.9 ± 7.3 nM
same,IC50,"A375; Homo sapiens, A-375, read-out: MMR201",118 ± 17.7 nM
same,IC50,"RKO (MLH1); MMR deficient, read-out: MMR201 IC50",27.2 ± 0.7 nM
same,IC50,"C8161; Homo sapiens, read-out: MMR201",254.2 ± 0.4 nM
same,IC50,"A2780/cp70; Homo sapiens, A2780/CP70",17 ± 1 nM
same,A2780/cp70 RF (Resistance Factor),A2780/cp70,0.29
same,IC50,"BE; MMR status unknown, p53 ?, read-out: MMR201 IC50",125 ± 17.3 nM
same,IC50,"MCF7; Homo sapiens, read-out: MMR201",870 ± 54.8 nM
same,IC50,"OVCAR5; Homo sapiens, OVCAR-5, read-out: MMR201",699 ± 54.6 nM
same,IC50,"DU145; Homo sapiens, DU-145, read-out: MMR201",328 ± 7.8 nM
same,IC50,"A2780; Homo sapiens, A2780, 24 hour drug exposure",58 ± 5 nM
same,IC50,"COLO320DM; Homo sapiens, COLO 320DM, MMR proficient, p53 mut, read-out: MMR201 IC50",594 ± 28.5 nM
same,IC50,"A549; Homo sapiens, read-out: MMR201",119 ± 10.6 nM
same,IC50,HS294; read-out: MMR201,105 ± 5.1 nM
same,IC50,"DLD1 (MSH6); Homo sapiens, DLD-1, MMR deficient, p53 mut, read-out: MMR201 IC50",186 ± 8.3 nM
same,IC50,"H125; Homo sapiens, NCI-H125, read-out: MMR201",130 ± 15 nM
